# PubChem BioAssay AID1919007 (Molecular Pharmacology Branch, DTP, NCI, 2023)
# Several values for one entry are separate records, joined by “and”; a condition that tells them apart may be missing. Equal values may be shown once.
# System: A498 complex spheroids with HUVEC/MSC, growth
# Test: Anticancer human tumor A498 cell line growth inhibition [AhR];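 note: seven day exposure starting three days after spheroid seeding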;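 for viability, T/C: luminescence signal used as a surrogate for viable cells; luminescence viability scaled so 100% equals DMSO vehicle wells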
# Conditions: for viability, T/C: stronger effect = lower value
# Procedure, shortened: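 Agents were dosed in half-log steps down from roughly clinical Cmax, or from 10 microM where Cmax was unknown, alone and with AhR antagonists. Read-out: percent test/control growth of tumor spheroids containing HUVEC and MSC stromal cells.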
# [1] = curve of first compound, second compound 0.1 µM
# [2] = curve of first compound, second compound 0.316 µM
# [3] = curve of first compound, second compound 1 µM
# [4] = curve of first compound, second compound 3.16 µM
# [5] = curve of first compound, second compound 10 µM
# [6] = second compound 0.1 µM, first compound 0.000949 µM
# [7] = second compound 0.1 µM, first compound 0.003 µM
# [8] = second compound 0.1 µM, first compound 0.00949 µM
# [9] = second compound 0.1 µM, first compound 0.03 µM
# [10] = second compound 0.1 µM, first compound 0.0949 µM
# [11] = second compound 0.1 µM, first compound 0.3 µM
# [12] = second compound 0.316 µM, first compound 0.000949 µM
# [13] = second compound 0.316 µM, first compound 0.003 µM
# [14] = second compound 0.316 µM, first compound 0.00949 µM
# [15] = second compound 0.316 µM, first compound 0.03 µM
# [16] = second compound 0.316 µM, first compound 0.0949 µM
# [17] = second compound 0.316 µM, first compound 0.3 µM
# [18] = second compound 1 µM, first compound 0.000949 µM
# [19] = second compound 1 µM, first compound 0.003 µM
# [20] = second compound 1 µM, first compound 0.00949 µM
# [21] = second compound 1 µM, first compound 0.03 µM
# [22] = second compound 1 µM, first compound 0.0949 µM
# [23] = second compound 1 µM, first compound 0.3 µM
# [24] = second compound 3.16 µM, first compound 0.000949 µM
# [25] = second compound 3.16 µM, first compound 0.003 µM
# [26] = second compound 3.16 µM, first compound 0.00949 µM
# [27] = second compound 3.16 µM, first compound 0.03 µM
# [28] = second compound 3.16 µM, first compound 0.0949 µM
# [29] = second compound 3.16 µM, first compound 0.3 µM
# [30] = second compound 10 µM, first compound 0.000949 µM
# [31] = second compound 10 µM, first compound 0.003 µM
# [32] = second compound 10 µM, first compound 0.00949 µM
# [33] = second compound 10 µM, first compound 0.03 µM
# [34] = second compound 10 µM, first compound 0.0949 µM
# [35] = second compound 10 µM, first compound 0.3 µM
# [36] = second compound 0.1 µM, first compound 0.0316 µM
# [37] = second compound 0.1 µM, first compound 0.1 µM
# [38] = second compound 0.1 µM, first compound 0.316 µM
# [39] = second compound 0.1 µM, first compound 1 µM
# [40] = second compound 0.1 µM, first compound 3.16 µM
# [41] = second compound 0.1 µM, first compound 10 µM
# [42] = second compound 0.316 µM, first compound 0.0316 µM
# [43] = second compound 0.316 µM, first compound 0.1 µM
# [44] = second compound 0.316 µM, first compound 0.316 µM
# [45] = second compound 0.316 µM, first compound 1 µM
# [46] = second compound 0.316 µM, first compound 3.16 µM
# [47] = second compound 0.316 µM, first compound 10 µM
# [48] = second compound 1 µM, first compound 0.0316 µM
# [49] = second compound 1 µM, first compound 0.1 µM
# [50] = second compound 1 µM, first compound 0.316 µM
# [51] = second compound 1 µM, first compound 1 µM
# [52] = second compound 1 µM, first compound 3.16 µM
# [53] = second compound 1 µM, first compound 10 µM
# [54] = second compound 3.16 µM, first compound 0.0316 µM
# [55] = second compound 3.16 µM, first compound 0.1 µM
# [56] = second compound 3.16 µM, first compound 0.316 µM
# [57] = second compound 3.16 µM, first compound 1 µM
# [58] = second compound 3.16 µM, first compound 3.16 µM
# [59] = second compound 3.16 µM, first compound 10 µM
# [60] = second compound 10 µM, first compound 0.0316 µM
# [61] = second compound 10 µM, first compound 0.1 µM
# [62] = second compound 10 µM, first compound 0.316 µM
# [63] = second compound 10 µM, first compound 1 µM
# [64] = second compound 10 µM, first compound 3.16 µM
# [65] = second compound 10 µM, first compound 10 µM
smiles,measurement,setting,value
CCc1c2c(nc3ccc(O)cc13)-c1cc3c(c(=O)n1C2)COC(=O)[C@]3(O)CC + CC(CO)NC(=O)c1cc(-c2ccc(Cl)cc2)nn(-c2cnn(C)c2)c1=O,IC50,[1],19.2 nM
same,IC50,[2],16 nM
same,IC50,[3],19 nM
same,IC50,[4],16 nM
same,IC50,[5],4.73 nM
same,"viability, T/C",[6],77.1%
same,"viability, T/C",[7],77.9%
same,"viability, T/C",[8],61.7%
same,"viability, T/C",[9],42.4%
same,"viability, T/C",[10],37.3%
same,"viability, T/C",[11],33.1%
same,"viability, T/C",[12],70.8%
same,"viability, T/C",[13],70.9%
same,"viability, T/C",[14],57.8%
same,"viability, T/C",[15],40.7%
same,"viability, T/C",[16],36.4%
same,"viability, T/C",[17],36.7%
same,"viability, T/C",[18],69.8%
same,"viability, T/C",[19],72.3%
same,"viability, T/C",[20],62.6%
same,"viability, T/C",[21],41.6%
same,"viability, T/C",[22],35.5%
same,"viability, T/C",[23],34.1%
same,"viability, T/C",[24],58.8%
same,"viability, T/C",[25],63.1%
same,"viability, T/C",[26],58.3%
same,"viability, T/C",[27],39.8%
same,"viability, T/C",[28],30.5%
same,"viability, T/C",[29],33.8%
same,"viability, T/C",[30],51.2%
same,"viability, T/C",[31],53.3%
same,"viability, T/C",[32],46.6%
same,"viability, T/C",[33],36.4%
same,"viability, T/C",[34],29.3%
same,"viability, T/C",[35],31.8%
CC(C)c1c(-c2ccccc2)nc2c(C#N)c[nH]n2c1=O,"viability, T/C",compound 0.0316 µM,109% and 96.5% and 102%
same,"viability, T/C",compound 0.1 µM,113% and 109% and 96%
same,"viability, T/C",compound 0.316 µM,104% and 105% and 96.3%
same,"viability, T/C",compound 1 µM,99.8% and 104% and 97.1%
same,"viability, T/C",compound 3.16 µM,102% (2×) and 98.6%
same,"viability, T/C",compound 10 µM,106% and 112% and 96.8%
same,IC50,curve of compound,> 10000 nM
CCc1c2c(nc3ccc(O)cc13)-c1cc3c(c(=O)n1C2)COC(=O)[C@]3(O)CC + Cc1cncc(-c2nc(NCCc3c[nH]c4ccccc34)c3ncn(C(C)C)c3n2)c1,IC50,[1],32.8 nM
same,IC50,[2],33.7 nM
same,IC50,[3],23.6 nM
same,IC50,[4],14 nM
same,IC50,[5],< 0.949 nM
same,"viability, T/C",[6],78.1%
same,"viability, T/C",[7],81.4%
same,"viability, T/C",[8],70.2%
same,"viability, T/C",[9],51%
same,"viability, T/C",[10],39.1%
same,"viability, T/C",[11],35.3%
same,"viability, T/C",[12],85.7%
same,"viability, T/C",[13],76%
same,"viability, T/C",[14],67.1%
same,"viability, T/C",[15],52.7%
same,"viability, T/C",[16],36.7%
same,"viability, T/C",[17],35.2%
same,"viability, T/C",[18],77.1%
same,"viability, T/C",[19],72.8%
same,"viability, T/C",[20],66.8%
same,"viability, T/C",[21],45.4%
same,"viability, T/C",[22],32.4%
same,"viability, T/C",[23],29.1%
same,"viability, T/C",[24],50.7%
same,"viability, T/C",[25],53.5%
same,"viability, T/C",[26],58.1%
same,"viability, T/C",[27],42%
same,"viability, T/C",[28],29.1%
same,"viability, T/C",[29],26.3%
same,"viability, T/C",[30],5.42%
same,"viability, T/C",[31],4.3%
same,"viability, T/C",[32],6.41%
same,"viability, T/C",[33],7.12%
same,"viability, T/C",[34],5.73%
same,"viability, T/C",[35],4.65%
Cc1ccccc1N=Nc1ccc(NC(=O)c2ccnn2C)c(C)c1,"viability, T/C",compound 0.1 µM,88.8% [middle of 20 runs]
same,"viability, T/C",compound 0.316 µM,96.8% [middle of 20 runs]
same,"viability, T/C",compound 1 µM,89.2% [middle of 20 runs]
same,"viability, T/C",compound 3.16 µM,84.9% [middle of 20 runs]
same,"viability, T/C",compound 10 µM,86.3% [middle of 20 runs]
same,IC50,"compound alone, run of 08/22/2022",> 10000 nM
Nc1ccccc1NC(=O)c1ccc(CNC(=O)OCc2cccnc2)cc1 + CC(CO)NC(=O)c1cc(-c2ccc(Cl)cc2)nn(-c2cnn(C)c2)c1=O,IC50,[1],963 nM
same,IC50,[2],799 nM
same,IC50,[3],766 nM
same,IC50,[4],703 nM
same,IC50,[5],322 nM
same,"viability, T/C",[36],89.4%
same,"viability, T/C",[37],88.8%
same,"viability, T/C",[38],77.7%
same,"viability, T/C",[39],44.6%
same,"viability, T/C",[40],24.5%
same,"viability, T/C",[41],1.98%
same,"viability, T/C",[42],79.5%
same,"viability, T/C",[43],85.8%
same,"viability, T/C",[44],74%
same,"viability, T/C",[45],39.5%
same,"viability, T/C",[46],23.2%
same,"viability, T/C",[47],2.07%
same,"viability, T/C",[48],75%
same,"viability, T/C",[49],75%
same,"viability, T/C",[50],78.5%
same,"viability, T/C",[51],39.2%
same,"viability, T/C",[52],23%
same,"viability, T/C",[53],4.91%
same,"viability, T/C",[54],64.5%
same,"viability, T/C",[55],73.8%
same,"viability, T/C",[56],71.4%
same,"viability, T/C",[57],38.1%
same,"viability, T/C",[58],20.2%
same,"viability, T/C",[59],1.92%
same,"viability, T/C",[60],58.2%
same,"viability, T/C",[61],53.1%
same,"viability, T/C",[62],55.1%
same,"viability, T/C",[63],28.7%
same,"viability, T/C",[64],14.5%
same,"viability, T/C",[65],0.8%
COc1cc(C2c3cc4c(cc3C(OC3OC5COC(C)OC5C(O)C3O)C3COC(=O)C23)OCO4)cc(OC)c1O (stereo not drawn) + Cc1ccccc1N=Nc1ccc(NC(=O)c2ccnn2C)c(C)c1,IC50,[1],> 10000 nM
same,IC50,[2],> 10000 nM
same,IC50,[3],> 10000 nM
same,IC50,[4],7600 nM
same,IC50,[5],8760 nM
same,"viability, T/C",[36],73.9%
same,"viability, T/C",[37],68%
same,"viability, T/C",[38],63.5%
same,"viability, T/C",[39],64.6%
same,"viability, T/C",[40],61.3%
same,"viability, T/C",[41],49.2%
same,"viability, T/C",[42],85%
same,"viability, T/C",[43],76.9%
same,"viability, T/C",[44],77.4%
same,"viability, T/C",[45],66.7%
same,"viability, T/C",[46],59.5%
same,"viability, T/C",[47],53.2%
same,"viability, T/C",[48],75.3%
same,"viability, T/C",[49],71.1%
same,"viability, T/C",[50],67.5%
same,"viability, T/C",[51],63.4%
same,"viability, T/C",[52],52.9%
same,"viability, T/C",[53],52.7%
same,"viability, T/C",[54],72.9%
same,"viability, T/C",[55],68.7%
same,"viability, T/C",[56],72.6%
same,"viability, T/C",[57],62.8%
same,"viability, T/C",[58],55.4%
same,"viability, T/C",[59],48.6%
same,"viability, T/C",[60],74.8%
same,"viability, T/C",[61],73.1%
same,"viability, T/C",[62],77.2%
same,"viability, T/C",[63],66.7%
same,"viability, T/C",[64],61.5%
same,"viability, T/C",[65],48.5%
